Experiment [1] addresses T1, Cannabinoid receptor 1 (Homo sapiens, UniProt P21554). Put plainly: Negative allosteric modulator activity at human CB1R expressed in CHO-K1 cells assessed as inhibition of CP55,940-induced beta-arrestin recruitment preincubated for 30 mins followed by CP55,940 addition measured for 90 mins by PathHunter assay relative to control. Type of experiment: cell-based. A general note: Recruitment of arrestin is a read-out of receptor activation apart from second messengers.

For experiment [2], the target named is T1, Cannabinoid receptor 1. Put plainly: Negative allosteric modulator activity at human CB1R expressed in CHO-K1 cells assessed as effect on CP55,940-induced inhibition of forskolin-induced cAMP accumulation preincubated for 30 mins followed by CP55,940 addition measured for 30 mins by HitHunter assay relative to control. The experiment is classed as functional, cell-based. In general terms: Cyclic AMP is a second messenger, typically raised through Gs and lowered through Gi signalling.

In experiment [3] the target is T1, Cannabinoid receptor 1. The experiment can be described thus: Selectivity index, ratio of EC50 for human CB1R by cAMP assay to EC50 for human CB1R by beta-arrestin recruitment assay. Type of experiment: functional, single protein.
Experiment [4] concerns the target T1, Cannabinoid receptor 1. Put plainly: Negative allosteric modulator activity at human CB1R expressed in CHO-K1 cells assessed as inhibition of CP55,940-induced beta-arrestin recruitment preincubated for 30 mins followed by CP55,940 addition measured for 90 mins by PathHunter assay. Type of experiment: cell-based.
Experiment [5] deals with T1, Cannabinoid receptor 1. Put plainly: Negative allosteric modulator activity at human CB1R expressed in CHO-K1 cells assessed as effect on CP55,940-induced inhibition of forskolin-induced cAMP accumulation preincubated for 30 mins followed by CP55,940 addition measured for 30 mins by HitHunter assay. The experiment is classed as functional, cell-based.
For experiment [6], the target named is T1, Cannabinoid receptor 1. The experiment can be described thus: Positive allosteric modulator activity at human CB1R expressed in CHO cells assessed as enhanced binding of [3H]CP55,940 after 60 mins by liquid scintillation spectrometric analysis relative to control. The experiment is classed as cell-based.
Experiment [7] deals with T1, Cannabinoid receptor 1. Put plainly: Inverse agonist activity at human CB1R expressed in CHO-K1 cells assessed as [35S]GTPgammaS binding at 10 uM preincubated for 60 mins prior to [35S]GTPgammaS addition by liquid scintillation spectrometric analysis. Type of experiment: functional, cell-based. A general note: Binding of GTPγS marks nucleotide exchange on a G protein.

Experiment [8] addresses Cannabinoid receptor 1 (Mus musculus) (UniProt P47746). Put plainly: Antagonist activity at CB1R in mouse brain membranes assessed as inhibition of CP55,940-induced [35S]GTPgammaS binding at 1 uM preincubated for 60 mins prior to [35S]GTPgammaS addition by liquid scintillation spectrometric analysis. Type of experiment: functional, cell membranes. The following applies: Membrane.

In experiment [9] the target is T1, Cannabinoid receptor 1. The experiment can be described thus: Positive allosteric modulator activity at human CB1R expressed in CHO cells assessed as enhanced binding of [3H]CP55,940 after 60 mins by liquid scintillation spectrometric analysis. The experiment is classed as cell-based.
The target of experiment [10] is Cannabinoid receptor 1 (Mus musculus) (UniProt P47746). The experiment can be described thus: Negative allosteric modulator activity at CB1R in mouse brain membranes assessed as Emax for CP55,940-induced [35S]GTPgammaS binding at 1 uM preincubated for 60 mins prior to [35S]GTPgammaS addition by liquid scintillation spectrometric analysis relative to control (reference value: […]%). The experiment is classed as functional, cell membranes. Conditions: Membrane.

Experiment [11] has as its target T1, Cannabinoid receptor 1. The experiment can be described thus: Positive allosteric modulator activity at human CB1R expressed in HEK293 cell membranes assessed as enhanced specific binding of [3H]CP55,940 at 500 nM pre-incubated for 60 mins before [3H]CP55,940 addition followed by drug wash-out by liquid scintillation spectrometric-based saturation binding assay.

In experiment [12] the target is Cannabinoid receptor 1 (Mus musculus) (UniProt P47746). Put plainly: Negative allosteric modulator activity at CB1R in mouse brain membranes assessed as inhibition of CP55,940-induced [35S]GTPgammaS binding at 100 nM and 1 uM preincubated for 60 mins prior to [35S]GTPgammaS addition by liquid scintillation spectrometric analysis. The experiment is classed as functional, cell membranes. The following applies: Membrane.

For experiment [13] the target is unchanged. Put plainly: Agonist activity at CB1R in mouse brain membranes assessed as [35S]GTPgammaS binding at 100 nM and 1 uM preincubated for 60 mins prior to [35S]GTPgammaS addition by liquid scintillation spectrometric analysis. Type of experiment: functional, cell membranes. Conditions: Membrane.
Experiment [14] has the same target. The experiment can be described thus: Inverse agonist activity at CB1R in mouse brain membranes assessed as [35S]GTPgammaS binding at 100 nM and 1 uM preincubated for 60 mins prior to [35S]GTPgammaS addition by liquid scintillation spectrometric analysis. The experiment is classed as functional, cell membranes. Conditions: Membrane.
Experiment [15] concerns the target T1, Cannabinoid receptor 1. The experiment can be described thus: Agonist activity at human CB1R expressed in CHO-K1 cells assessed as inhibition of CP55,940-induced [35S]GTPgammaS binding up to 1 uM preincubated for 60 mins prior to [35S]GTPgammaS addition by liquid scintillation spectrometric analysis. Type of experiment: functional, cell-based.
Experiment [16] has as its target T1, Cannabinoid receptor 1. The experiment can be described thus: Inverse agonist activity at human CB1R expressed in CHO-K1 cells assessed as inhibition [35S]GTPgammaS binding up to 1 uM preincubated for 60 mins prior to [35S]GTPgammaS addition by liquid scintillation spectrometric analysis. Type of experiment: functional, cell-based.
Experiment [17] deals with Cannabinoid receptor 1 (Mus musculus) (UniProt P47746). Put plainly: Activity at CB1R in mouse brain membranes assessed as inhibition of CP55,940-induced [35S]GTPgammaS binding at 100 nM and 1 uM preincubated for 60 mins prior to [35S]GTPgammaS addition by liquid scintillation spectrometric analysis relative to control. The following applies: Membrane. Type of experiment: functional, cell membranes.

Experiment [18] addresses T1, Cannabinoid receptor 1. Put plainly: Positive allosteric modulator activity at human CB1R expressed in HEK293 cell membranes assessed as enhanced binding of [3H]CP55,940 at 500 nM by liquid scintillation spectrometric analysis. The following applies: TDE = time-dependent effect.
Experiment [19] concerns the target T1, Cannabinoid receptor 1. Put plainly: Activity at human CB1R expressed in HEK293 cell membranes assessed as reduction in binding of [3H]CP55,940 at 500 nM after 90 to 120 mins by liquid scintillation spectrometric analysis.
Experiment [20] addresses Cannabinoid receptor 1 (Mus musculus) (UniProt P47746). The following applies: Brain, Membrane, at 100 nM.

Active and inactive are the calls of the source. The calls are words filed in the database; no cut-off is given here. Some results are limits rather than exact numbers.

What is called Emax is the size of the effect at its maximum, as opposed to the concentration needed. The term EC50 denotes the midpoint of the concentration-response curve.

Cannabinoid receptor 1 (Mus musculus), sequence (P47746 whole entry): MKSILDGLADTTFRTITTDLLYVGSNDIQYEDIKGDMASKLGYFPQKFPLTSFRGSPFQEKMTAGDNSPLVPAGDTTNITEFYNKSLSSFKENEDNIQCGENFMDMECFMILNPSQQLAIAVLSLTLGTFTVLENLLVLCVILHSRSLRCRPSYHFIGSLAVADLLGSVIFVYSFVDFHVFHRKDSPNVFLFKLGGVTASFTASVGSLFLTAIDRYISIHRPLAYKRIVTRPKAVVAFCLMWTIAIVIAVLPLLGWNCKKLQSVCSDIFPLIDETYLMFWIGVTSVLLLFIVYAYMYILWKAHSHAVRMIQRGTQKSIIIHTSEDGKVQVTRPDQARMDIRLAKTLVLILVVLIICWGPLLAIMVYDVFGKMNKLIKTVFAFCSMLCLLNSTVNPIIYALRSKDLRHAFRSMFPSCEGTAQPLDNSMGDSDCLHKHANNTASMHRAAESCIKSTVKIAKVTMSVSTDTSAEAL
T1 sequence (P21554 whole entry): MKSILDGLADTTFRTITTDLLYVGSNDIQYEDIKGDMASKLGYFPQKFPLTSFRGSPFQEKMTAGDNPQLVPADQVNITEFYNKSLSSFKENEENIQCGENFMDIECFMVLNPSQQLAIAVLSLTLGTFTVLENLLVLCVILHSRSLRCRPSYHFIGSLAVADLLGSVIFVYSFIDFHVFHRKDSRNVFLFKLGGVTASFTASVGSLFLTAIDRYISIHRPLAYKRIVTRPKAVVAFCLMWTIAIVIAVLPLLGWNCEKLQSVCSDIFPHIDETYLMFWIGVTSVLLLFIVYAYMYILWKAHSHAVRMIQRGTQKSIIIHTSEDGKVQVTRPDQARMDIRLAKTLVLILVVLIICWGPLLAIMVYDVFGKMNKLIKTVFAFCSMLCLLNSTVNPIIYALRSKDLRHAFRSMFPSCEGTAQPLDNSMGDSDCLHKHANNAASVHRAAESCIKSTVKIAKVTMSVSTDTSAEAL

`CCc1c(C(=O)NCCc2ccc(N3CCCCC3)cc2)[nH]c2ccc(N=[N+]=[N-])cc12`: the figures for the Emax in experiment [1] and in experiment [2] were 105% and 87.1%, respectively. In [3], the Ratio EC50 was found to be 14.

`[N-]=[N+]=Nc1ccc(NC(=O)Nc2cccc(-c3cccc(N4CCCC4)n3)c2)cc1`: the EC50 in experiment [4] was determined as 0.0282 µM; in [5], 0.166 µM. For the same compound, the Emax in experiment [1] turned out to be 105%; in experiment [2], 103%. The Ratio EC50 in experiment [3] turned out to be 3.

`CCCCCCC(C)(C)c1ccc([C@@H]2C[C@H](O)CC[C@H]2CCCO)c(O)c1`: the Emax in experiment [6] was -90.1%.

For `CCc1c(C(=O)NCCc2ccc(N3CCCCC3)cc2)[nH]c2ccc(Cl)cc12`, the EC50 in experiment [4] is 0.00905 µM; in experiment [5], 0.324 µM; in [9], 0.083 µM. The Emax in experiment [1] worked out at 105%; in experiment [2], 78.1%; in experiment [10], 32.4%; in [6], 109%. For the same compound, the result in experiment [7] was Active. Besides, the inhibition result in experiment [8] was “Active”. In experiment [11], the result was inactive.

In the case of `O=C(NCCc1ccc(N2CCCCC2)cc1)c1[nH]c2ccc(Cl)cc2c1CCN=C=S`, the EC50 in experiment [4] was 0.209 µM; in [5], more than 10 µM. For the same compound, the Emax is 107% in [1] and -8.84% in experiment [2]. For the same compound, in experiment [3], the Ratio EC50 was 14.

For `O=C(Nc1ccc(N=C=S)cc1)Nc1cccc(-c2cccc(N3CCCC3)n2)c1`, the EC50 in experiment [4] came out at 0.0429 µM. For the same compound, the Emax was 106% in [1] and 78.2% in [2]. Further, in experiment [3], the Ratio EC50 is 3.

For the compound `O=C(Nc1ccc(Cl)cc1)Nc1cccc(-c2cccc(N3CCCC3)n2)c1`, the values for the Emax in experiment [1] and in [2] were 106% and 115%, respectively.

Turning to `[N-]=[N+]=NCCc1c(C(=O)NCCc2ccc(N3CCCCC3)cc2)[nH]c2ccc(Cl)cc12`, the Emax was 105% in experiment [1] and 96.8% in experiment [2]. Further, the EC50 in [5] stood at 1.12 µM. Further, the Ratio EC50 in experiment [3] worked out at 14.

For the compound `O=C(Nc1ccc(C(=O)c2ccccc2)cc1)Nc1cccc(-c2cccc(N3CCCC3)n2)c1`, the half-maximal effective concentration (EC50) in experiment [4] is 0.683 µM; in experiment [5] it was more than 10 µM. Further, the Emax is 77.4% in [1] and 28.1% in experiment [2]. The Ratio EC50 in experiment [3] was 3.

In the case of `CCc1c(C(=O)NCCc2ccc(N3CCCCC3)cc2)[nH]c2ccc(N=C=S)cc12`, the values for the EC50 in experiment [4], in [5] and in experiment [9] were 0.00209 µM, 0.174 µM and 0.0196 µM, respectively. Besides, the Emax turned out to be 103% in [1]; 111% in experiment [2]; 11.2% in experiment [10]; 87.8% in experiment [17]; 116% in experiment [6]; 71.7% in experiment [20]. The inhibition result in [12] is “Dose-dependent effect”. Also, the result in experiment [13], in experiment [14], in [15] and in [16] was inactive. The Activity entry in [18] is “tde”. Besides, in [3], the Ratio EC50 came to 14. The fold change (FC) in experiment [11] stood at 2.25. The inhibition entry in experiment [19] was “Active”.

The values are drawn from ChEMBL document CHEMBL3758125 (J Med Chem, 2016).
